Experimental data: patent publication US5232684A, “Labelled resiniferatoxin, compositions thereof, and methods for using the same” (priority 1990, dated 1993)
Entries after “also recorded” stand apart in the source; their conditions may differ. Where two headings read alike, the source gives them in different places.

Legend:
[1] = molecular target: T1, capsaicin receptor (pig DRG membranes) (Sus scrofa, UniProt F1RLJ0); assay: biochemical; format: binding; details: for inhibition of specific [^3H]RTX binding: Table 1, 200 nM or 2 μM; for inhibition of [^3H]RTX binding: 30 uM; for inhibition of / competition for [^3H]RTX binding (words): biologically effective concentrations, Table 1, 10 μM, 10 µM
T1 construct: tissue Mt; Airy Locker Co., Mt; Airy, MD; host or cells: pig dorsal root ganglia
T1 sequence (F1RLJ0 1-841): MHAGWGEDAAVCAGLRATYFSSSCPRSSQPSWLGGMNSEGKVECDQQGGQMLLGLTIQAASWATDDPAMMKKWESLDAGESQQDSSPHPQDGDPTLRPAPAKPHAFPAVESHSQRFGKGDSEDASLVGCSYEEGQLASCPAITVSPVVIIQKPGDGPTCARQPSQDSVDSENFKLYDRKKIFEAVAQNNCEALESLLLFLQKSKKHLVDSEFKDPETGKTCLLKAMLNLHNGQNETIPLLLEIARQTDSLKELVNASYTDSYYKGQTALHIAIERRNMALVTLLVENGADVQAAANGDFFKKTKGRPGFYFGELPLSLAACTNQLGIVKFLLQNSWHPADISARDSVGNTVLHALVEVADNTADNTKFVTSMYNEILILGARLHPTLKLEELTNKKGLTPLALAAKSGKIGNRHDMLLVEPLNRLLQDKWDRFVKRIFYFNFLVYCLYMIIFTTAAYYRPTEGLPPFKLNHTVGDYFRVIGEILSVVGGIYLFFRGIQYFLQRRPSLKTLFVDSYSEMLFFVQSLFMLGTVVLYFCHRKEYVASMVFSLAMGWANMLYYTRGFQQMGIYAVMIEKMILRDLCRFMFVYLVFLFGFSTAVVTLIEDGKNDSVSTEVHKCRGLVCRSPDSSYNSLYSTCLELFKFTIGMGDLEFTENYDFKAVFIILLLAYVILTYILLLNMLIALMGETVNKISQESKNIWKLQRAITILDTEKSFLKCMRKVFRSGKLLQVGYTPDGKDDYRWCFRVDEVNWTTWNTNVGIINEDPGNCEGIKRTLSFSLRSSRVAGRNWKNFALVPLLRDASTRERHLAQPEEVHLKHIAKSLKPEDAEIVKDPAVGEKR
Description: (§1) Membrane preparations are obtained from the DRG and Gasser ganglia of female Sprague-Dawley rats (250-300 g); animals are sacrificed by decapitation under ether anesthesia, the ganglia removed and collected into ice-cold disrupting buffer (5 mM KCl, 5.8 mM NaCl, 2 mM MgCl2, 12 mM glucose, 137 mM sucrose, 10 mM HEPES, 5 mM DTT, 2 mM EGTA, pH 7.4). After homogenization with the aid of a Polytron tissue homogenizer, samples are filtered over surgical gauze and then washed twice with the same buffer and stored at -70° C. Particulate fractions are obtained from other rat neural tissues (cerebellum, spinal cord, preoptic region, striatum, substantia nigra) and from DRG of pigs (Mt. Airy Locker Co., Mt. Airy, MD), sheep, cows (kindly provided by Dr. Solomon, USDA, Beltsville, MD), and chickens (Truslow Farms, Chesterton, MD) by a similar procedure.
Subcellular fractions are prepared by a modification of the method of Bastiaensen et al. (Bastiaensen, E., Miserez, B. and De Potter, W., Subcellular fractionation of bovine ganglion stellatum: co-storage of noradrenaline, Met-enkephalin and neuropeptide Y in large `dense-cored` vesicles, Brain Res., 442 (1988) 124-130. ) Briefly: DRG are dissected free from capsule, cut into small pieces with scissors, and then homogenized with a teflon pestle (20 strokes) in ice-cold 0.25 M sucrose/ 20 mM Tris-Cl (pH 7.4) buffer. The homogenate is filtered over surgical gauze; it is then centrifuged for 10 min at 2000 gmax, giving a pellet P1, and again at 10 000 gmax for 15 min giving a pellet P2. The P1 and P2 pellets are saved as nuclear and mitochondrial fractions for binding studies. The resulting supernatant is further centrifuged at 50 000 gmax for 60 min, and then the pellet is harvested as the plasma-membrane enriched microsomal fraction.
(§2) The binding assays are carried out in a volume of 250 ul, containing assay buffer (same as the disrupting buffer but omitting DTT and EGTA and including 0.75 mM CaCl2), 26-30 ug of membrane protein and 0.25 mg/ml bovine serum albumin. […] Tubes are kept on ice while the additions are made. The assay mixture is incubated for 10 min at 37° C.; it is then cooled on ice. 150 ul of the mixture is pipetted onto Whatman GF/C or GF/F glass fiber filters presoaked with 10 mg/ml bovine serum albumin in 20 mM Tris-Cl (pH 7.4) and filtered immediately. An aliquot of 50 ul of the mixture is removed to determine total radioactivity. The filters are washed with 100 ml of ice-cold 20 mM Tris-Cl, pH 7 4, containing 0.1 mg/ml bovine serum albumin, and the bound radioactivity is determined by scintillation counting. Non-specific binding is determined in the presence of 100-1000 nM non-radioactive RTX.
(§3) Binding data from saturation experiments using increasing concentrations of hot ligand are analyzed using the collection of computer programs described by McPherson (McPherson, G.A., Analysis of radioligand binding experiments: a collection of computer programs for the IBM PC, J.Pharmacol.Methods, 14 (1985) 213-228).
(§4) Scatchard and Hill transformations are performed by the Equilibrium Binding Data Analysis program referred to as EBDA. Data are further analyzed by the curvilinear regression program LIGAND (Munson, R.J. and Rodbard, D., LIGAND: a versatile computerized approach for characterization of ligand-binding systems, Anal.Biochem, 107 (1980) 220-239).
RTX binding is also analyzed in the presence of a fixed, low (60 pM or 300 pM) concentration of [^3 H]RTX and increasing concentrations of non-radioactive RTX or other ligand.

[2] = molecular target: T2, capsaicin receptor (rat DRG membranes) (Rattus norvegicus, UniProt O35433); assay: biochemical; format: binding; details: for activity at 0.2 µM: 10 min, read-out: % of specific [^3H]RTX binding measured in the absence of the tested compound ± SEM
T2 construct: membrane preparations from dorsal root ganglia (DRG) of female Sprague-Dawley rats; from tissue; host or cells: dorsal root ganglia of female Sprague-Dawley rats
T2 sequence (O35433 whole entry): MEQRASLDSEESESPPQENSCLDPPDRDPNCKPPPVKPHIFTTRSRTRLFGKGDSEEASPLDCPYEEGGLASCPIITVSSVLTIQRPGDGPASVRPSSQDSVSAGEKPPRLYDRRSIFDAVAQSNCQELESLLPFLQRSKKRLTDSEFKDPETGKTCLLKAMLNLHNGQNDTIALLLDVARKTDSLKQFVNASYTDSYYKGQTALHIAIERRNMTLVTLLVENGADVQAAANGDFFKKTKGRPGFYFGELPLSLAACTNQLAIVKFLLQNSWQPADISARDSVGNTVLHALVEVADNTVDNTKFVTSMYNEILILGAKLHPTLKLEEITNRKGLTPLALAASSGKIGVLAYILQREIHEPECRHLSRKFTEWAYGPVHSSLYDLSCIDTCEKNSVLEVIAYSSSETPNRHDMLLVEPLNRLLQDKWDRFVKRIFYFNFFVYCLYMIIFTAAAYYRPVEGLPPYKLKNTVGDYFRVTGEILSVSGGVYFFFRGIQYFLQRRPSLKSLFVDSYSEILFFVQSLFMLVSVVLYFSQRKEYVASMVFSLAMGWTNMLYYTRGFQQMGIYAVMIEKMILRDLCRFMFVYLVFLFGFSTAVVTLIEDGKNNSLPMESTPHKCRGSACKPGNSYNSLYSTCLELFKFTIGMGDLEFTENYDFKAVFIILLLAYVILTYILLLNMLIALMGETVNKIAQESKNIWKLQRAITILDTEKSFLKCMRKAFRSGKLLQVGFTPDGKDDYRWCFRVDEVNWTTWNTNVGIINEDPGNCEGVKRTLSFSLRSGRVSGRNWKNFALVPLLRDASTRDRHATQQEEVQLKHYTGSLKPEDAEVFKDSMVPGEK
Description: as §1, §2, §3, §4
(§5) RTX binding is also analyzed in the presence of a fixed, low (60 pM or 300 pM) concentration of [^3 H]RTX and increasing concentrations of non-radioactive RTX or other ligand. […] The Ki value for RTX is calculated from the relationship Ki =ID50 -L; the Ki values for other ligands are calculated from the general form of the equation (Cheng, Y.C. and Prusoff, W.H., Relation between the inhibition constant (Ki) and the concentration of inhibitor which causes 50 per cent inhibition (I50) of an enzymatic reaction, Biochem. Pharmacol., 22 (1973) 3099-3108) Ki =IC50 /(1+L/Kd) where L=concentration of labelled ligand and Kd =dissociation constant of radioactive ligand as determined in the saturation experiments using variable concentrations of hot ligand. Comparison of the quality of fit using single and multiple site competition models is performed by the LIGAND program.
[^3 H]RTX binding is examined using membrane preparations from dorsal root ganglia (DRG) of female Sprague-Dawley rats.

protein kinase C [3] = assay: [^3H]phorbol 12,13-dibutyrate binding, rat DRG membranes
From the text: The side chain at C20 is essential for the capsaicin-like 25 activity of RTX (Szallasi, A., Sharkey, N.A. and Blumberg, P.M., Structure-activity analysis of resiniferatoxin analogs, Phytotherapy Res., 6: 253-257, 1990).

rats = details: 300 ug/kg RTX s.c.; cited from earlier work
[4] = RTX versus capsaicin, cited from earlier work
[5] = RTX versus capsaicin; cited from earlier work
[6] = molecular target: T3, capsaicin receptor (rat Gasser ganglia) (Rattus norvegicus, UniProt O35433); assay: biochemical; format: binding; details: for activity at 30 µM: read-out: % of specific [^3H]RTX binding measured in the absence of the tested compound ± SEM
T3 construct: from tissue; host or cells: Gasser ganglia of female Sprague-Dawley rats
T3 sequence (O35433 whole entry): as above
Description: as §1, §2, §3, §4, §5
Gasser ganglia represents the […] homolog of the dorsal root ganglia.

[7] = test system: mitochondrial NADH-Coenzyme Q oxidoreductase; details: high capsaicin concentrations; cited from earlier work
[8] = test system: capsaicin desensitization of sensory fibers; details: cited from earlier work
protein kinase C [9] = assay: [^3H]PDBu binding, pig DRG membranes; details: read-out: Kd for [^3H]PDBu binding to membrane preparations
[10] = 10 min, pig DRG, 30 μM, read-out: % of specific [^3H]RTX binding measured in the absence of the tested compound ± SEM

**Q.** With `N[C@@H](Cc1ccc(O)c(O)c1)C(=O)O` [L-DOPA] as the compound, how does the “competition for [^3H]RTX binding sites” value ([1]; pig DRG, 100 uM) read?
**A.** does not compete

**Q.** With `CCCC(=O)O[C@@H]1[C@@H](C)[C@@]2(O)[C@@H](C=C(CO)C[C@]3(O)C(=O)C(C)=C[C@@H]23)[C@@H]2C(C)(C)[C@]12OC(=O)CCC` [PDBu, phorbol 12,13-dibutyrate] as the compound, how does the activity at 0.2 µM [2] read?
**A.** 106 ± 9%

**Q.** And the activity at 0.2 µM ([1]; 10 min, read-out: % of specific [^3H]RTX binding measured in the absence of the tested compound ± SEM)?
**A.** 100 ± 2%

**Q.** What about the “inhibition of specific [^3H]RTX binding” value [1] of the same compound?
**A.** inhibited neither

**Q.** With `C=C(C)[C@]12C[C@@H](C)[C@@]34O[C@](Cc5ccccc5)(O[C@@H]1[C@@H]3C=C(CO)C[C@]1(O)C(=O)C(C)=C[C@@H]41)O2` [ROA, resiniferonol 9,13,14-orthophenylacetate] as the compound, how does the activity at 0.2 µM ([2]; rat DRG, 200 nM) read?
**A.** 106%

**Q.** And the activity at 2 µM ([1]; 10 min, pig DRG, 2 μM, read-out: % of specific [^3H]RTX binding measured in the absence of the tested compound ± SEM)?
**A.** 105 ± 6%

**Q.** What about the “inhibition of specific [^3H]RTX binding” value [1] of the same compound?
**A.** inhibited neither

**Q.** Which Ki ([2]; rat DRG, 60 pM [^3H]RTX, 30 pM to 3 nM non-radioactive RTX, mean±SEM, 3 determinations, read-out: Ki, competition of [^3H]RTX binding) does the source give for `C=C(C)[C@]12C[C@@H](C)[C@@]34O[C@](Cc5ccccc5)(O[C@@H]1[C@@H]3C=C(COC(=O)Cc1ccc(O)c(OC)c1)C[C@]1(O)C(=O)C(C)=C[C@@H]41)O2` [RTX, resiniferatoxin] here?
**A.** 0.11 ± 0.04 nM

**Q.** What about the “loss of specific [^3H]RTX binding after addition of excess non-radioactive RTX” value ([1]; pig DRG membranes, by 10 min at 37° C.) of the same compound?
**A.** complete loss of specific binding

**Q.** And the Ki ([1]; pig DRG, mean±SEM, 4 determinations, read-out: Ki, inhibition of [^3H]RTX binding)?
**A.** 2.4 ± 0.3 nM

**Q.** And the Ki ([1]; pig DRG, one site model, read-out: Ki (LIGAND analysis))?
**A.** 2.2 nM

**Q.** And the “inhibition of specific [^3H]phorbol 12,13-dibutyrate binding to protein kinase C” value (protein kinase C [3]; rat DRG preparations)?
**A.** only at uM concentrations

**Q.** What about the “time to expression of desensitization” value (rats) of the same compound?
**A.** 1 to 4 h

**Q.** And the “fold more potent than capsaicin / difference in potencies for induction of hypothermia or neurogenic inflammation” value [4]?
**A.** 10^3 -10^4 fold

**Q.** And the “fold more potent than capsaicin / difference in potencies for induction of hypothermia or neurogenic inflammation” value ([4]; listed as resiniferatoxin)?
**A.** up to 10^4 fold

**Q.** And the “potency for induction of pain relative to capsaicin” value [5]?
**A.** comparable in potency

**Q.** For `COc1cc(CNC(=O)CCCC/C=C/C(C)C)ccc1O` [capsaicin], which Ki [1] is on record?
**A.** 14000 ± 2000 nM

**Q.** And the “% of specific [^3H]RTX binding measured in the absence of the tested compound ± SEM” value (from here on “% of specific … of the tested compound ± SEM”) ([1]; pig DRG, 30 μM, 10 min)?
**A.** 28 ± 4%

**Q.** What about the “% of specific … of the tested compound ± SEM” value ([6]; gasser ganglia membranes, 30 µM) of the same compound?
**A.** 30 ± 11

**Q.** What about the “inhibition of NADH-Coenzyme Q oxidoreductase” value [7] of the same compound?
**A.** inhibited at high capsaicin concentrations

**Q.** What does the source list for `COc1cc(CNC(=O)CCCCCCC(C)C)ccc1O` [dihydrocapsaicin]?
**A.** inhibition of [^3H]RTX binding ([1]; pig DRG): inhibits to a similar degree as does capsaicin; % of specific [^3H]RTX binding measured in the absence of the tested compound ± SEM ([1]; pig DRG, 30 μM, 10 min): 33 ± 5%; % of specific [^3H]RTX binding measured in the absence of the tested compound ± SEM ([6]; rat Gasser ggl, 30 μM): 22%

**Q.** With `NCCc1ccc(O)c(O)c1` [dopamine] as the compound, how does the “competition for [^3H]RTX binding sites” value [1] read?
**A.** does not compete

**Q.** With `CNC[C@H](O)c1ccc(O)c(O)c1` [epinephrine] as the compound, how does the “competition for [^3H]RTX binding sites” value [1] read?
**A.** does not compete

**Q.** Which “competition for [^3H]RTX binding sites” value ([1]; pig DRG, 100 uM) does the source give for `NC[C@H](O)c1ccc(O)c(O)c1` [norepinephrine] here?
**A.** does not compete

**Q.** For `O=C(/C=C/C=C/c1ccc2c(c1)OCO2)N1CCCCC1` [piperine], which activity at 30 µM [1, 10] is on record?
**A.** 109 ± 2%

**Q.** And the “inhibition of [^3H]RTX binding” value ([1]; pig DRG)?
**A.** does not inhibit or does so more weakly

**Q.** And the activity at 30 µM ([6]; rat Gasser ggl, 30 μM)?
**A.** 118%

**Q.** With `N.N.N.N.N.N.N.N.N.N.N.N.N.N.[Cl-].[Cl-].[Cl-].[Cl-].[Cl-].[Cl-].[O-2].[O-2].[Ru+3].[Ru+3].[Ru+4]` [ruthenium red] as the compound, how does the “inhibition of / competition for [^3H]RTX binding (words)” value [1] read?
**A.** fails to compete

**Q.** What about the “inhibition of / competition for [^3H]RTX binding (words)” value ([1]; listed as Ruthenium red) of the same compound?
**A.** fails to inhibit

**Q.** What about the “% of specific … of the tested compound ± SEM” value ([1]; pig DRG (by column position), 10 μM, n = 2) of the same compound?
**A.** 109%

**Q.** And the “effect on (capsaicin) desensitization” value [8]?
**A.** block capsaicin desensitization; also recorded: blocks the desensitization

**Q.** Which activity at 30 µM [1, 10] does the source give for `COc1cc(CCC(C)=O)ccc1O` [zingerone] here?
**A.** 92 ± 7%

**Q.** What about the “inhibition of [^3H]RTX binding” value ([1]; pig DRG) of the same compound?
**A.** does not inhibit or does so more weakly

**Q.** And the activity at 30 µM ([6]; rat Gasser ggl, 30 μM)?
**A.** 111%

**Q.** With “[^3 H]phorbol 12,13-dibutyrate [[^3 H]PDBu]” as the compound, how does the Kd (protein kinase C [3]; rat DRG, read-out: Kd for [^3H]PDBu binding to membrane preparations) read?
**A.** 8.5 nM

**Q.** What about the Kd (protein kinase C [9]) of the same compound?
**A.** 11.5 nM
